Measurements from patent US9182408B2 (priority 2004, dated 2015).
Where two headings read alike, the source gives them in different places.

How the values were obtained:
ERα [1] = biological target: ERα (Homo sapiens, UniProt P03372)
Procedure: (§1) Yeast two-hybrid experiments are carried out in the yeast strain (MATa; his3-Δ200; leu2-3,112; trp1-901; [plexAop]4::HIS3; [plexAop]8::lacZ), in which expression of the two reporter genes HIS3 and LacZ is under the control of the LexA operator sequence. This yeast strain cannot grow in absence of histidine in the culture medium, and yeast growth can be rescued only if expression of HIS3 gene is induced. Similarly, the LacZ reporter gene encoding the β-galactosidase marker is not expressed in this yeast strain. The bait plasmids encoding either the full-length or a region of the target protein (Nuclear Receptor, viral proteins for example), and the random peptide/VP16-AD library were transformed into the yeast strain and yeast colonies growing in absence of histidine were selected. […] Growth of false positive clones may be prevented by adding 3-amino-triazole (3AT), a competitive inhibitor of HIS3, to the medium. […] All conformation sensitive peptides dissociated by both target protein agonists and antagonists were selected for further characterization with the aim to develop screening platforms that allow the search of both activators and inhibitors of target protein in one single assay. The biological activity of each isolated conformation sensitive peptide is reconfirmed by isolation of conformation sensitive peptide encoding plasmids, re-transformation into yeast strain and analysis of HIS3 and lacZ gene expression in absence of histidine and in presence of target protein or non-target protein ligands in a spot test, as well as in a quantitative LacZ assay. 4.1—Identification in Yeast of Conformation Sensitive Peptides Interacting with the Estrogen Receptor
The bait plasmids encoding the full length or the DEF regions of the ERα and the prey peptide/VP16-AD VV01 library (diversity of 6.10^7) were transformed into the yeast strain. Yeast colonies growing in absence of histidine were selected. […] Growth of false positive clones was prevented by adding 3-amino-triazole (3AT), a competitive inhibitor of HIS3 to the medium. […] Out of the 484 clones, 40 were randomly picked for further studies.
The biological activity of each isolated 3D-Screen peptide was reconfirmed by isolation of 3D-Screen encoding plasmids, retransformation into the yeast strain (MATa; his3-Δ200; leu2-3,112; trp1-901; [plexAop]4::HIS3; [plexAop]8::lacZ) and analysis of HIS3 and lacZ gene expression in absence of Histidine and in presence of ER or non-ER ligands in a spot test.

[2] = biological target: human retinoic acid receptor alpha (RARα) (Homo sapiens, UniProt P10276); conditions: RAR-DEF bait, 28 selected clones, medium without histidine
Sequence of human retinoic acid receptor alpha (RARα) (P10276 183-417 limits assumed): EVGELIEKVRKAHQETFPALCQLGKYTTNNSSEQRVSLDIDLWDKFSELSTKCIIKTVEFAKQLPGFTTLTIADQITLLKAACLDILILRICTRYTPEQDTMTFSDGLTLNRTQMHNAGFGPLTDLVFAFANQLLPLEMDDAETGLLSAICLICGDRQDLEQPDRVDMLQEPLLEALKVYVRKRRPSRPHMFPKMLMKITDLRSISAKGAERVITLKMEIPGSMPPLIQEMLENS
Procedure: as §1

ERα [3] = system: ERα
Source text: FIG. 10: Generation of a 3D-screen human cell screening platform for ERα Hela cells are transiently transfected with three expression plasmids encoding the reporter gene luciferase (eg. UAS-Luc), the target protein fused to a DNA Binding Domain (DBD) and the conformation sensitive peptide previously screened in yeast and fused to the VP16-AD, respectively with the jetPEI reagent. […] This platform was used to screen a small molecule library.
Hela cells are transiently transfected with three expression plasmids encoding the reporter gene luciferase (eg. UAS-Luc), the ERα fused to a DNA Binding Domain (DBD) and the conformation sensitive peptide previously screened in yeast and fused to the VP16-AD, respectively, with the jetPEI reagent. Cells are grown in the absence of any ligand (DMSO, lane 1; ethanol, lane 2), or in the presence of ER ligands (agonists E2, DES or antagonists 4OHT, lane 3-5) or non-ER ligands (Dex and 9C-RA; lanes 8 & 9), or in the presence of Estren (lane 6) at 100 nM (right panel) and 10 μM (left panel).
Hela cells are transiently transfected with three expression plasmids encoding the reporter gene luciferase (eg. UAS-Luc), the ERα fused to a DNA Binding Domain (DBD) and the conformation sensitive peptide previously screened in yeast and fused to the VP16-AD, respectively, with the jetPEI reagent.
HeLa cells were transiently transfected with plasmid using the optimized jetPEI transfection protocol (PolyPlus Transfection, Illkirch, France). […] Chemical ligands are added to the cell culture medium 24H after transfection. Luciferase activity was measured 24H later. […] Cells are trypsinised and plated in 96 well-plates (or 384 well-plates) at 5×10^4 cells per well 24H after transfection, and small molecules are added upon cell adhesion. Luciferase activity is measured 24 H later.
The three expression plasmids, UAS-luc, full-length ER and 3D-screen/VP16AD (#30-2) were co-transfected in Hela cells in large dishes. Cells were then reseeded in a 96-well plate format 24 H after transfection and chemical compounds are added upon cell adhesion. Luciferase activity was measured 24 H later. Internal controls were also included, consisting in known ER- or non-ER ligands as previously indicated.

[4] = biological target: NS5B protein of Hepatitis C virus (Hepatitis C virus genotype 1b, UniProt P26663); conditions: NS5BΔ21 bait, medium without Histidine; Gliotoxin 20 μM
Procedure: Yeast two-hybrid experiments are carried out in the yeast strain (MATa; his3-Δ200; leu2-3,112; trp1-901; [plexAop]4::HIS3; [plexAop]8::lacZ), in which expression of the two reporter genes HIS3 and LacZ is under the control of the LexA operator sequence. This yeast strain cannot grow in absence of histidine in the culture medium, and yeast growth can be rescued only if expression of HIS3 gene is induced. Similarly, the LacZ reporter gene encoding the β-galactosidase marker is not expressed in this yeast strain. The bait plasmids encoding either the full-length or a region of the target protein (Nuclear Receptor, viral proteins for example), and the random peptide/VP16-AD library were transformed into the yeast strain and yeast colonies growing in absence of histidine were selected. […] Growth of false positive clones may be prevented by adding 3-amino-triazole (3AT), a competitive inhibitor of HIS3, to the medium. […] The biological activity of each isolated conformation sensitive peptide is reconfirmed by isolation of conformation sensitive peptide encoding plasmids, re-transformation into yeast strain and analysis of HIS3 and lacZ gene expression in absence of histidine and in presence of target protein or non-target protein ligands in a spot test, as well as in a quantitative LacZ assay. […]

wild-type ERα = wild-type ERα (Homo sapiens, UniProt P03372); conditions: HeLa, ERE-luc, 24 H
Sequence of wild-type ERα (P03372 whole entry): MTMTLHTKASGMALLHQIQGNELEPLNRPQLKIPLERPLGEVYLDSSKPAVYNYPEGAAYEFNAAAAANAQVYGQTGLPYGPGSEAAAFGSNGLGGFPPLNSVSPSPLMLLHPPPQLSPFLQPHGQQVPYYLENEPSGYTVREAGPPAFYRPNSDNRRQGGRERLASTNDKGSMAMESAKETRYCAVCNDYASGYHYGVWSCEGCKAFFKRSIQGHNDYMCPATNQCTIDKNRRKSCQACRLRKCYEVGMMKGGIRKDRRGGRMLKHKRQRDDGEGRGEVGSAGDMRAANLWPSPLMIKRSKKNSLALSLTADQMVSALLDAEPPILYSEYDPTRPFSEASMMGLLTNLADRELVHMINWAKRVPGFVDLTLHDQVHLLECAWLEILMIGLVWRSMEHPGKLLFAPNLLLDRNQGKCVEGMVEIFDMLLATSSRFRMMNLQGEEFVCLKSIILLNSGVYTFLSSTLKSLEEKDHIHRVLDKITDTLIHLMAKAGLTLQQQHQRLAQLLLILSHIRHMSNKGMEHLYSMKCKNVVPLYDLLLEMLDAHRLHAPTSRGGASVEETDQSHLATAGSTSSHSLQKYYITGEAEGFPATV
Procedure: Furthermore, the potential agonist and antagonist properties of these hits were investigated in HeLa cells by co-transfection of an ERE-luc reporter plasmid, in which the luciferase gene is under the control of the estrogen-responsive elements (ERE), and an expression plasmid encoding the wild-type ERα. Transfections were performed as previously described for the primary screening, and cells are inclubated for 24 H either in the presence of the chemical hits alone to test for their agonist activity, or in the presence of the hit together with 100 nM E2 to test for their antagonist activity.

bone cells = conditions: cited from earlier work

Sequence of ERα (Homo sapiens, UniProt P03372) (P03372 311-547 limits assumed): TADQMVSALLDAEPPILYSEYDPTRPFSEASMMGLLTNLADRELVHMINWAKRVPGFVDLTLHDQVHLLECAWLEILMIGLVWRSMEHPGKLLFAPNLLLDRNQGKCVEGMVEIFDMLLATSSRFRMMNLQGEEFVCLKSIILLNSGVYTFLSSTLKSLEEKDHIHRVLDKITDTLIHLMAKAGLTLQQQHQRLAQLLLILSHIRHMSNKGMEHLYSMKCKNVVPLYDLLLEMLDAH

9-cis retinoic acid
effect of added ligand on growth and LacZ expression of yeast clones (dissociation of peptide/VP16AD from ERα) (ERα [1]): no effect | effect of added ligand on growth of yeast clones (dissociation of peptide/VP16AD from RARα) [2]: suppresses the growth of 14 of these clones | luciferase expression (FIG. 11) (ERα [3]): strong | luciferase expression (FIG. 13) (ERα [3]): strong

C[C@]12CC[C@@H]3c4ccc(O)cc4C[C@@H](CCCCCCCCC[S+]([O-])CCCC(F)(F)C(F)(F)F)[C@H]3[C@@H]1CC[C@@H]2O (stereo partly drawn) [ICI182780]
luciferase expression (FIG. 13) (ERα [3]): preventing the expression of luciferase | luciferase expression upon addition of ligand (ERα [3]): strongly reduced

CC1=C(/C=C/C(C)=C/C=C/C(C)=C/C(=O)O)C(C)(C)CCC1 [all-trans-Retinoic Acid]
effect of added ligand on growth of yeast clones (dissociation of peptide/VP16AD from RARα) [2]: suppresses the growth of 14 of these clones | effect of added ligand on growth of yeast clones (dissociation of peptide/VP16AD from RARα) ([2]; listed as AT-RA): selective dissociation of the peptide/VP16AD protein induced only by the AT-RA ligand | luciferase expression (FIG. 13) (ERα [3]): strong

CN1C(=O)[C@]23CC4=CC=C[C@H](O)[C@H]4N2C(=O)[C@@]1(CO)SS3 [gliotoxin]
effect of added compound on yeast growth and HIS3/LacZ expression (dissociation of peptides from NS5B) [4]: shut-off of HIS3 and the prevention of growth of the yeast

NC(=O)c1ncn([C@@H]2O[C@H](CO)[C@@H](O)[C@H]2O)n1 [ribavirin]
effect of added compound on yeast growth and HIS3/LacZ expression (dissociation of peptides from NS5B) [4]: no effect on yeast growth

Estren
luciferase expression (FIG. 11) (ERα [3]): preventing the expression of luciferase | agonist activity (hit alone) (wild-type ERα): do not allow the identification | antagonist activity (hit together with 100 nM E2) (wild-type ERα): do not allow the identification | apoptosis of bone cells and effect on reproductive organs (bone cells): prevent apoptosis of bone cells without affecting the reproductive organs

F C T P I R M F Y R A P L W D L N K [peptide 30-2]
peptide binding to ER in the presence of non-ER ligands (growth, lacZ) (ERα [1]): all clones are growing under selective conditions and stain positive for lacZ | peptide binding to ER on addition of ER ligands (growth under selective conditions) (ERα [1]): clones are not growing under selective conditions | reporter genes (His3 and LacZ) on interaction of peptide with ER in the un-liganded form (ERα [1]): clones are growing under selective conditions and stain positive for lacZ

S C C T Q H V C Y R P R A Y R [peptide 5-21]
peptide binding to ER in the presence of non-ER ligands (growth, lacZ) (ERα [1]): all clones are growing under selective conditions and stain positive for lacZ | peptide binding to ER on addition of ER ligands (growth under selective conditions) (ERα [1]): clones are not growing under selective conditions | reporter genes (His3 and LacZ) on interaction of peptide with ER in the un-liganded form (ERα [1]): clones are growing under selective conditions and stain positive for lacZ

S I T T L F Y H A M F G F V P [peptide 9-23]
peptide binding to ER in the presence of non-ER ligands (growth, lacZ) (ERα [1]): all clones are growing under selective conditions and stain positive for lacZ | peptide binding to ER on addition of ER ligands (growth under selective conditions) (ERα [1]): clones are not growing under selective conditions | reporter genes (His3 and LacZ) on interaction of peptide with ER in the un-liganded form (ERα [1]): clones are growing under selective conditions and stain positive for lacZ
